Data taken from US8709434B2, “Compositions for inhibiting NADPH oxidase activity” (PCB Associates, Inc., priority 2006, dated 2014).

Columns and labels:
[1] = tested on: NADPH oxidase; experiment: NADPH-induced superoxide production by cellular NADPH oxidase, lucigenin chemiluminescence, human aortic endothelial cells; format: cell-based; conditions: for inhibition of NADPH oxidase superoxide production: 300 nM to 20 μM for 1 h
Protocol: (§1) Human cell cultures derived from aortic endothelium were incubated with NADPH to induce superoxide production by cellular NADPH oxidase. Superoxide production was quantified by lucigenin chemiluminescence. Lucigenin is a specific detector of superoxide. […] Phycocyanobilin (PCB, FIG. 1A) or biliverdin (BVD, FIG. 1B) were added to the NADPH-treated cell cultures in concentrations ranging from 300 nM to 20 μM. Biliverdin is another known inhibitor of NADPH oxidase.
(§2) Human aortic endothelial cells were purchased from Clonetics (East Rutherford, N.J.). The endothelial cell were cultured in endothelial cell basal medium (Clonetics) supplemented with hFGF-B, VEGF, IGF-1, ascorbic acid hEGF, hydrocortisone and 2% fetal calf serum. The cells from 2nd to 5th passages were used in the experiments. Cellular production of superoxide anion was determined by the lucigenin method. For the experiments, cells were detached with trypsin/EDTA and resuspended in modified HEPES buffer containing 140 mM NaCl, 5 mM KCl, 0.8 mM MgCl2, 1.8 mM CaCl2, 1 mM Na2HPO4, 25 mM HEPES, and 1% glucose (pH7.2), and incubated with or without various concentrations of phycocyanobilin (PCB) or biliverdin (BVD) from 300 nM to 20 μM for 1 h. Immediately before recording, NADPH (100 μM) and dark-adapted lucigenin (5 μM) were added to cell suspension. Light emission was recorded every minute for 20 min and was expressed as mean arbitrary light unit/min. Experiments were performed in triplicate. In experiments with inhibition of NAD(P)H oxidase, diphenylene iodonuim cloride (DPI, 10^−5 M), an inhibitor of NAD(P)H oxidase, was added 10 min before NADPH addition and recording of chemiluminescence. This is the first experiment to see the effect of purified phycocyanobilin on NADPH oxidase activity using human aortic endothelial cells.

[2] = tested on: NADPH oxidase; experiment: NADPH-induced superoxide production by cellular NADPH oxidase, lucigenin chemiluminescence, human renal mesangial cells; format: cell-based; conditions: for inhibition of NADPH oxidase superoxide production: 300 nM to 20 μM for 1 h
Protocol: as §1, with “renal mesangial tissue” for “aortic endothelium”, “3A)” for “1A)”, “3B)” for “1B)”
as §2, with “mesangial” for “aortic endothelial”, “[…] cells” for “endothelial cell”, “a Mesangial Cell Growth Medium” for “endothelial cell basal medium”, “containing 5%” for “supplemented with hFGF-B, VEGF, IGF-1, ascorbic acid hEGF, hydrocortisone and 2%”, “chemiluminescence.” for “chemiluminescence. This is the first experiment to see the effect of purified phycocyanobilin on NADPH oxidase activity using human aortic endothelial cells.”

[3] = tested on: NADPH oxidase; experiment: NADPH-induced superoxide production by cellular NADPH oxidase, lucigenin chemiluminescence, human aortic smooth muscle cells; format: cell-based; conditions: for inhibition of NADPH oxidase superoxide production: 300 nM to 20 μM for 1 h
Protocol: as §1, with “smooth muscle” for “endothelium”, “2A)” for “1A)”, “2B)” for “1B)”
as §2, with “aortic smooth muscle” for “aortic endothelial”, “The smooth muscle cells” for “The endothelial cell”, “in a Smooth Muscle Cell Growth Medium” for “in endothelial cell basal medium”, “(Clonetics) containing 5%” for “(Clonetics) supplemented with hFGF-B, VEGF, IGF-1, ascorbic acid hEGF, hydrocortisone and 2%”

[4] = oral administration, compared with bilirubin; cited from earlier work
[5] = mice, concurrent administration; cited from earlier work
[6] = rats; cited from earlier work
[7] = compared with bilirubin; cited from earlier work
[8] = feeding to cholesterol-fed hamsters; cited from earlier work
[9] = oral, mice and rats, dose range 50-300 mg/kg/day; cited from earlier work
[10] = mice, oral pre-treatment; cited from earlier work
[11] = DPI 10^−5 M added 10 min before NADPH (100 μM)

## c1ccc2c(c1)[I+]c1ccccc1-2 [Diphenyleneiodonium, diphenylene iodonuim cloride]
[1]; [11]
  inhibition of the excess superoxide production induced by added NADPH: completely inhibit
[2]; [11]
  inhibition of the excess superoxide production induced by added NADPH: completely inhibit
[3]; [11]
  inhibition of the excess superoxide production induced by added NADPH: completely inhibit

## C=CC1=C(C)/C(=C/C2=NC(=C\c3[nH]c(/C=C4\NC(=O)C(C)=C4C=C)c(C)c3CCC(=O)O)/C(CCC(=O)O)=C2C)NC1=O [biliverdin]
[4]
  bioavailability: greater bioavailability than bilirubin
[5]
  colitis induced with oral dextran sodium sulfate: substantially ameliorated
[6]
  ischemia-reperfusion damage of transplanted organs: ameliorates the ischemia-reperfusion damage
  rejection of cardiac or renal allografts: helps to prevent the rejection
[1]
  inhibition of NADPH oxidase superoxide production: dose-dependent inhibition
[2]
  inhibition of NADPH oxidase superoxide production: dose-dependent inhibition
[3]
  inhibition of NADPH oxidase superoxide production: dose-dependent inhibition
[7]
  solubility: far more soluble than bilirubin

## phycocyanin
[8]
  production of arterial fatty streaks: inhibit the production of arterial fatty streaks quite markedly
[9]
  anti-inflammatory effects: dose-dependent anti-inflammatory effects
[10]
  endotoxin-induced shock (severe hypotension and death): considerable ameliorated

## phycocyanobilin
[1]
  inhibition of NADPH oxidase superoxide production: dose-dependent inhibition
[1]; 20 μM
  inhibitory effect on NADPH oxidase activity compared with DPI: equivalent to that of DPI
[2]
  inhibition of NADPH oxidase superoxide production: dose-dependent inhibition
[2]; 20 μM
  inhibitory effect on NADPH oxidase activity compared with DPI: less than that of DPI, but was statistically significant
[3]
  inhibition of NADPH oxidase superoxide production: dose-dependent inhibition
[3]; 20 μM
  inhibitory effect on NADPH oxidase activity compared with DPI: equivalent to that of DPI
